Measurements as given in patent US5441956A, “Hydroisoquinoline derivatives” (Smithkline Beecham Farmaceutici S.p.A., priority 1991, dated 1995).
pKi: −log10 of the molar value. Where a name gives a salt, the structure may show the parent alone.

What was measured:
[1] = molecular target: T1, κ opioid receptor (kappa sites) (Cavia porcellus, UniProt P41144); test: Binding to kappa sites (3H-BRL 52537A); settings: guinea pig brain homogenate, 40 min at 25° C.
T1 construct: performed on fresh guinea pig brain homogenates; from tissue; host or cells: guinea pig whole brain without cerebellum, washed membrane homogenate
T1 sequence (P41144 whole entry): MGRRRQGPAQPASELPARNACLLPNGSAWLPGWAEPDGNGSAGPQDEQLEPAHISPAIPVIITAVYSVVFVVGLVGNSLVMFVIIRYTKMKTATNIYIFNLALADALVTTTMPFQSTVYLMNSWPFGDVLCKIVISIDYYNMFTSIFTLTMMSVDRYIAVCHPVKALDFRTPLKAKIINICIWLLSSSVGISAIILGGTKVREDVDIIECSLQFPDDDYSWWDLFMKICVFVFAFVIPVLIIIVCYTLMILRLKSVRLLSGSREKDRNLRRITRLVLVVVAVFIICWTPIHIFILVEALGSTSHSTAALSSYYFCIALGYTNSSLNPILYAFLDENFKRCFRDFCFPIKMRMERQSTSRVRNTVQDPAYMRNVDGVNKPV
Experimental: (§1) Radio receptor binding to delta, mu and kappa sites is performed on fresh guinea pig brain homogenates prepared according to Kosterlitz (1981). Whole brain, without cerebellum is homogenized in 50 mM Tris-buffer and centrifuged at 49,000×g for 10 min.
(§2) The pellet is then resuspended in the s3me buffer, incubated at 37° C. for 45 min. and centrifuged again.
(§3) 1.9 ml of the final homogenate (1:100 in Tris-pH 7.4 0° C.) is used for the binding assay.
Final homogenate with solutions of the cold ligand and of the labelled ligand is incubated for 40 min. at 25° C., filtered through Whatman GF-C glass filter discs and washed. The radioactivity bound to the filters is counted by liquid scintillation spectrophotometry.

[2] = molecular target: T2, μ opioid receptor (mu sites) (Cavia porcellus, UniProt A0ACM8Q262); test: Binding to mu sites (3H-DAGO); settings: guinea pig brain homogenate, 40 min at 25° C.
T2 construct: 3H-DAGO (DAMGO) displacement
T2 sequence (A0ACM8Q262 1-400): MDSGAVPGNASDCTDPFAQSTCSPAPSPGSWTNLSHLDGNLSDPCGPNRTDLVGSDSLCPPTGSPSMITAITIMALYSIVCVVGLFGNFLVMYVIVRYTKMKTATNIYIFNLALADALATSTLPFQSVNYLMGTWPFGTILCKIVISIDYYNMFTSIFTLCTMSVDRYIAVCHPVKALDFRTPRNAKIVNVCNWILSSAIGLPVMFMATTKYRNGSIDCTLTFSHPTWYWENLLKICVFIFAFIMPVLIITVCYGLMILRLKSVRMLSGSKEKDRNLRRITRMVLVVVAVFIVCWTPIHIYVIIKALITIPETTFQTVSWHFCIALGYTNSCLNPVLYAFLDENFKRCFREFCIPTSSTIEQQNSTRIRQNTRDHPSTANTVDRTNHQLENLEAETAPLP
Experimental: as §1, §2, §3
Binding to mu sites (Magnan J., 1982)
^3 H-[D-Ala^2, MePhe^4, Gly-Ol^5 ]Enkephalin (^3 H-DAGO), an enkephalin analogue that binds selectively to mu receptor, is added to the biological substrate and incubated at 25° C. for 40 min, filtered through Whatman GF-C filters and washed with ice-cold Tris buffer. The filters are then dried, solubilized in Filtercount and the radioactivity monitored. Non-specific binding is determined in the presence of 10^-6 M naloxone.

[3] = tested on: mice (Male Charles River, Swiss Strain); test: Antinociception, tail-flick test in mice; type: in vivo, mouse; settings: i.t., 10 min pretreatment
Experimental: The methodology employed is based on that described by D'Amour and Smith, J. Pharmacol. Exp. Ther. 72, 74 (1941).
Male Charles River mice (Swiss Strain) 29-35 g body weight are used.
Animals are allowed food and water ad libitum and are randomized into groups of 10 prior to experimentation.
Test compounds are dissolved in either distilled water or distilled water plus 0.1M AMS and administered by the intrathecal route in a final volume of 5 μl/mouse, according to the method described by Hylden and Wilcox, Eur. J. Pharmacol. 67,313 (1980).
Four hours prior the beginning of experiments, mice are anaesthetized with pentobarbital (80 mg/Kg i.p.) and a caudal cutaneous incision (1 cm) is performed on the back using a disposable 30 gauge 1/2 inch needles mated to a 50 μl luer siringe (Hamilton). The drug are delivered intrathecally between L5 and L6 of spinous process.
Control animals receive […] of the appropriate vehicle alone. Following a pretreatment period of 10 min., the mice are again placed under the heat source and the reaction time redetermined.
Percentage quantal protection is determined as the number of mice in which the reaction time is doubled compared to pretreatment values, expressed as a percentage of the total number of mice in the group.

[4] = molecular target: T3, δ opioid receptor (delta sites) (Cavia porcellus, UniProt A0A286XTF2); test: Binding to delta sites (radioreceptor binding, 3H-DADLE with unlabelled DAGO); settings: guinea pig brain homogenate, 3H-DADLE + 30 nM DAGO, 40 min at 25° C.
T3 construct: performed on fresh guinea pig brain homogenates; from tissue; host or cells: guinea pig whole brain without cerebellum, washed membrane homogenate
T3 sequence (A0A286XTF2 1-366): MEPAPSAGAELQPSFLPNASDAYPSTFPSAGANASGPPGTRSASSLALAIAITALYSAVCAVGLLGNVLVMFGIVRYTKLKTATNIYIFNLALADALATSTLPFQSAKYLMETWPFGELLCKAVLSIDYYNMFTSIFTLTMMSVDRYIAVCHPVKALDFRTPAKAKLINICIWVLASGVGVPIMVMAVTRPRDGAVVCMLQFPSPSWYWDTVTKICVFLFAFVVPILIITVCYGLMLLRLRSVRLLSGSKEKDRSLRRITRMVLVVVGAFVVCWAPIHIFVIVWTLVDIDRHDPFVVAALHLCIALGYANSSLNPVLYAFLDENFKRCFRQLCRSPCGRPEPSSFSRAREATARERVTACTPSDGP
Experimental: as §1, §2, §3
For binding experiments, ^3 H-DADLE, which binds to mu and delta sites, is used in the presence of 30 nM of unlabelled DAGO to prevent mu binding. A concentration of radioligand near KD is used in the binding assays evaluating compounds of the invention. Non-specific binding is determined by addition of Mr 2266, 2.5 μM. The tubes are incubated for 40 min at 25° C. and bound ligand is separated from free by filtration through Whatman GF-G filters. The level of bound radioactivity on the filters is measured by liquid scintillation after solubilization in filtercount. The equilibrium dissociation constant (KD) and the maximum binding capacity (Bmax) are determined from the analysis of saturation curves, while the inhibition constant (Ki) is determined from the analysis of competition experiments (Hill 1910; Scatchard 1949; Cheng and Prusoff 973; Gillan et al 1980).

Structure (SMILES) | pKi [1] | pKi [2] | Antinociception Mouse Tail-Flick ED50 [3] [mg/mouse] | pKi [4]
CCN1CC[C@]2(c3cccc(O)c3)Cc3[nH]c4ccccc4c3C[C@H]2C1 (relative stereo) [Example 1, 2-ethyl-4aα-(3-hydroxyphenyl)-1,2,3,4,4a,5,11,11aβ-octahydro indolo[2,3-g]isoquinoline hydrochloride] | < 6.00 | 5.68 | 0.010 | 7.79
CN1CC[C@]2(c3cccc(O)c3)Cc3[nH]c4ccccc4c3C[C@H]2C1 (relative stereo) [Example 5, 2-Methyl-4aα-(3-hydroxyphenyl)-1,2,3,4,4a,5,11,11aβ-octahydroindolo[2,3-g]isoquinoline hydrochloride] | < 6.00 | 6.51 | – | 7.80
CN1CC[C@]2(c3cccc(O)c3)Cc3c(c4ccccc4n3C)C[C@H]2C1 (relative stereo) [Example 7, 2,6-Dimethyl-4aα-(3-hydroxyphenyl)-1,2,3,4,4a,5,11,11aβ-octahydroindolo[2,3-g]isoquinoline] | < 6.00 | 6.51 | – | 7.47
CN1CC[C@]2(c3cccc(O)c3)Cc3oc4ccccc4c3C[C@H]2C1 (relative stereo) [Example 10, 2-Methyl-4aα-(3-hydroxyphenyl)-1,2,3,4,4a,5, 11, 11aβ-octahydrobenzofuro[2,3-g]isoquinoline] | < 6.00 | 6.98 | – | 8.00
Cc1ccc2[nH]c3c(c2c1)C[C@H]1CN(C)CC[C@]1(c1cccc(O)c1)C3 (relative stereo) [Example 12, 2,9-Dimethyl-4aα-(3-hydroxyphenyl)-1,2,3,4,4a,5,11,11aβ-octahydroindolo[2,3-g]isoquinoline] | < 6.00 | 6.17 | – | 7.21
CN1CC[C@]2(c3cccc(O)c3)Cc3[nH]c4c(Cl)cccc4c3C[C@H]2C1 (relative stereo) [Example 16, 2-Methyl-4aα-(3-hydroxyphenyl)-7-chloro-1,2,3,4,4a,5,11,11aβ-octahydroindolo[2,3-g]isoquinoline] | < 6.00 | 6.25 | – | 7.79
CCN1CC[C@]2(c3cccc(O)c3)Cc3[nH]c4ccccc4c3C[C@H]2C1 (single isomer, unassigned) [Example 39, (+)-2-Ethyl-4aα-(3-hydroxyphenyl)-1,2,3,4,4a,5,11,11aβ-octahydroindolo[2,3-g]isoquinoline hydrochloride] | < 6.00 | 5.65 | – | 8.20
